We go through 2 molecules from patent US20140140925A1, “FOLATE-TARGETED DIAGNOSTICS AND TREATMENT” (priority 2009, published 2014).

The subject of data set [1] is folate receptors. As to the kind of experiment: EC20 scan of ovarian cancer patients at the interim analysis of Example 25. It counts as in vivo, human. Conditions: at the time of the interim analysis of Example 25. From the text: Folate-receptor status in the patient is positive if one or more tumors in the patient have folate receptors capable of binding EC20 or if all tumors in the patient are capable of binding EC20. In one illustrative example, the folate-radioactive imaging agent conjugate is ^99mTc-EC20. At the time of the interim analysis described in Example 25, below, 91.3% of all ovarian cancer patients scanned with EC20 had been “positive” (indicated by having at least one tumor lesion/area that binds EC20) versus 8.7% of patients that were fully EC20 “negative”.
In this visual assessment embodiment (visual detection), lesions are evaluated visually to determine if the patient has a threshold level of functionally active folate receptors indicative of a clinical benefit to the patient. In one aspect, lesions (i.e., tumors) for analysis in each patient are selected by a radiologist according to RECIST (v1.0) criteria. Subsequently, a nuclear medicine physician (i.e. reader) assesses the uptake of the EC20 for each evaluable target lesion visually, and classifies the uptake as “EC20 positive” (marked uptake/mild uptake) or “EC20 negative” (no uptake). In one illustrative example the folate-radioactive imaging agent conjugate is ^99mTc-EC20.

For data set [2], the system named is folate receptors. Description: 99mTc-EC20 SPECT uptake in target lesions (EC-FV-02). The class given is in vivo, human. On the procedure:
EC20 Patient Scanning Procedure. Following completion of screening procedures and confirmation of eligibility, all subjects received one intravenous injection of 0.5 mg of folic acid followed within 1-3 minutes by a 1-2 mL injection of 0.1 mg of EC20 labeled with 20-25 mCi of technetium-99m. Patients then underwent SPECT imaging (mid-thigh to head, posterior and anterior images) 1-2 hours following injection of EC20. Target lesions were selected by the radiologist according to RECIST (v1.0) criteria. Subsequently, nuclear medicine physicians assessed EC20 uptake for each target lesion visually, and classified the uptake as “positive” (marked/mild uptake) or “negative” (no uptake).
EC20 Lesion Scoring Procedure.
Forty-five protocol-eligible subjects with a total of 216 RECIST-defined target tumors (ie, “lesions”) were included in this retrospective analysis (table below). One-hundred and forty-five (145/216; 67%) of the lesions were considered EC20 “evaluable.” Of these, 111 (77%) had EC20 “positive” uptake.

Data set [3] can be described thus: Storage stability of EC20 drug substance and EC20 kits. The class given is physicochemical. The following applies: −20° C. in amber glass bottles with butyl rubber stoppers. On the procedure: EC20 kits were used for preparation of the ^99mTc-EC20 radioactive drug substance. Each kit contained a sterile, non-pyrogenic lyophilized mixture of 0.1 mg EC20, 80 mg sodium α-D-glucoheptonate, […] dihydrate, and sufficient sodium hydroxide or hydrochloric acid to adjust the pH to 6.8±0.2 prior to lyophilization. The lyophilized powder was sealed in a 5 mL vial under an argon atmosphere. The kits were then stored frozen at −20° C. until use or expiration (current shelf life is >2 years). The tin (II) chloride component is present to reduce the added ^99mTc-pertechnetate, while the sodium α-D-glucoheptonate component is present to stabilize the reduced ^99mTc prior to its final chelation to the EC20 compound.
EC20 Drug Substance is stored at −20° C. in amber glass bottles with butyl rubber stoppers.

Setting [4] is: of 145 evaluable lesions, visual SPECT assessment, 45 subjects.

The structures appear in SMILES notation.

`Nc1nc2ncc(CNc3ccc(C(=O)N[C@H](CCC(=O)NC[C@@H]4[NH][99Tc]56(=[O])[S]C[C@@H](C(=O)O)[N]5C(=O)[C@H](CC(=O)O)[N]6C4=O)C(=O)O)cc3)nc2c(=O)[nH]1` [EC20]: in data set [1], the “ovarian cancer patients scanned "positive" (at least one tumor lesion/area that binds EC20)” value amounted to 91.3% and the “patients fully EC20 "negative"” value is listed as 8.7%. For the same molecule, in data set [2] (45 subjects, EC-FV-02), the “subjects with EC20 uptake observed visually in at least 1 target lesion” value is given as “Eighty-seven percent”. In data set [2] (setting [4]), the “Negative (EC20−(neg)) lesions” value is 34 (23%) N (%) and the “Positive (EC20+) lesions” value is recorded as 111 (77%) N (%). Besides, in data set [2] (organs whose target lesions were considered non-evaluable), the “uptake in liver, spleen, bladder, and kidney” value is given as “inherently high uptake”.

On to `Nc1nc2ncc(CNc3ccc(C(=O)N[C@H](CCC(=O)NC[C@H](N)C(=O)N[C@@H](CC(=O)O)C(=O)N[C@@H](CS)C(=O)O)C(=O)O)cc3)nc2c(=O)[nH]1` [EC20 Drug Substance, pteroyl-γ-D-glutamyl-β-L-2,3-diaminopropionyl-L-aspartyl-L-cysteine], for which the “time stable on storage” value in data set [3] is “more than 24 months”.
